Consider 8 molecules from PubChem BioAssay (NCI).

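Growth conditions: 96-well plates. Treatment: test compound, 48 hours, 5 concentrations. Analysis: linear interpolation between bracketing concentrations; unreached endpoints set to highest concentration. GI50: concentration for 50% inhibition of growth. TGI: concentration producing complete growth inhibition.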

Some test systems named below: A498 renal; ACHN renal; HCC-2998 colon; M14 melanoma; MDA-MB-231 breast; MDA-MB-435; NCI-H460 lung; SF-268 CNS; SN12C renal; SNB-19 CNS.
Common to all, as to assay: NCI-60 cell line screen, 48 h

For the molecule `Cc1cc(N2CCN(C)CC2)nc(N(CCNc2ccnc3cc(Cl)ccc23)Cc2ccco2)n1`, the GI50 was 4.79 µM in the assay with A498 renal; 5.08 µM with ACHN renal; 2.65 µM with HCC-2998 colon; 1.78 µM in the assay with M14 melanoma; 2.46 µM in the assay with MDA-MB-231 breast; 1.62 µM with MDA-MB-435. Besides, the GI50 in the assay on NCI-H460 lung is 3.52 µM; in the assay on SF-268 CNS, 5.82 µM; with SN12C renal it was 8.88 µM; in the assay on SNB-19 CNS it was 4.92 µM. In addition, the TGI was found to be 17.3 µM in the assay with A498 renal; 17.5 µM in the assay with ACHN renal; 11.1 µM in the assay on HCC-2998 colon; 3.3 µM with M14 melanoma; 7.84 µM in the assay with MDA-MB-231 breast; 3.39 µM with MDA-MB-435. Also, the TGI turned out to be 11.8 µM with NCI-H460 lung, 20.3 µM in the assay on SF-268 CNS, 21 µM with SN12C renal and 16.5 µM in the assay on SNB-19 CNS.

As to `C[C@@H](Oc1cc(-c2cnn(C3CC4(CNC4)C3)c2)cnc1N)c1c(Cl)ccc(F)c1Cl`, the GI50 was 1.1 µM in the assay with A498 renal; 4.89 µM with ACHN renal; 5.42 µM with HCC-2998 colon; 1.57 µM in the assay with M14 melanoma; 2.23 µM in the assay with MDA-MB-231 breast; 1.16 µM in the assay on MDA-MB-435. Further, the GI50 in the assay with NCI-H460 lung was 1.98 µM; in the assay on SF-268 CNS it was 4.19 µM; with SN12C renal, 2.59 µM; in the assay on SNB-19 CNS, 9.7 µM. In addition, the TGI in the assay on A498 renal was determined as 4.81 µM; in the assay with ACHN renal it was 18.3 µM; with HCC-2998 colon it was 19.7 µM; with M14 melanoma it was 3.37 µM; with MDA-MB-231 breast, 14.4 µM; in the assay on MDA-MB-435, 14.2 µM. The TGI in the assay with NCI-H460 lung came to 13.7 µM; in the assay on SF-268 CNS, 18.2 µM; in the assay on SN12C renal, 13.8 µM; in the assay on SNB-19 CNS it was 24.3 µM.

Take `O=C1C=CC(=O)c2c1cc1ccccc1c2O`: the TGI in the assay on A498 renal was 28.8 µM; with ACHN renal it was 8.26 µM; in the assay on HCC-2998 colon, 32.8 µM; with M14 melanoma, 26.5 µM; in the assay on MDA-MB-231 breast it was 4.25 µM; with MDA-MB-435 it was 19.2 µM. In addition, the TGI was found to be 41.3 µM in the assay with NCI-H460 lung, 29.2 µM with SF-268 CNS, 25.2 µM in the assay on SN12C renal and 35.9 µM with SNB-19 CNS.

Consider `NC(Cc1ccc(O)cc1)C(=O)N/N=C/c1ccc(N(CCCl)CCCl)cc1` (stereo not given), for which the GI50 with A498 renal is 9.78 µM; in the assay with ACHN renal it was 6.42 µM; with HCC-2998 colon, 24.1 µM; in the assay with M14 melanoma, 17.5 µM; in the assay on MDA-MB-231 breast, 5.25 µM; with MDA-MB-435, 12.2 µM. Besides, the GI50 in the assay on NCI-H460 lung is 0.647 µM; with SF-268 CNS, 2.81 µM; in the assay on SN12C renal it was 1.42 µM; with SNB-19 CNS, 29.9 µM. For the same molecule, the TGI is 59.5 µM in the assay on A498 renal; over 100 µM in the assay with ACHN renal; over 100 µM in the assay on HCC-2998 colon; 81.2 µM with M14 melanoma; 32.6 µM with MDA-MB-231 breast; 65.4 µM in the assay with MDA-MB-435. Besides, the TGI in the assay with NCI-H460 lung was 26.7 µM; in the assay on SF-268 CNS it was 87.8 µM; with SN12C renal, over 100 µM; in the assay on SNB-19 CNS, over 100 µM.

In the case of `[CH3][Sn]([CH3])([CH3])[O]C(=O)C(O)c1ccccc1` (stereo not given), the GI50 with A498 renal was 13.8 µM; in the assay with ACHN renal it was 4.27 µM; in the assay with HCC-2998 colon, 2.32 µM; in the assay on M14 melanoma it was 1.98 µM; in the assay on MDA-MB-231 breast, 39.2 µM; in the assay on MDA-MB-435, 3.52 µM. In addition, the GI50 in the assay with NCI-H460 lung was 3.9 µM; in the assay with SF-268 CNS, 6.2 µM; in the assay on SN12C renal, 8.7 µM; in the assay with SNB-19 CNS, 17 µM. Moreover, the TGI in the assay with A498 renal was 63.9 µM; in the assay on ACHN renal, over 100 µM; in the assay with HCC-2998 colon it was 7.15 µM; in the assay with M14 melanoma it was 4.15 µM; in the assay with MDA-MB-231 breast, over 100 µM; in the assay with MDA-MB-435, 14.8 µM. For the same molecule, the TGI was over 69.8 µM in the assay on NCI-H460 lung, over 82.7 µM in the assay with SF-268 CNS, 99 µM in the assay with SN12C renal and over 89.2 µM with SNB-19 CNS.

For the molecule `O=c1c(-c2ccc3c(c2)OCO3)coc2c(CO)c(O)ccc12`, the GI50 in the assay with A498 renal was 1.76 µM; in the assay with ACHN renal, 1.82 µM; with HCC-2998 colon it was 2.01 µM; in the assay with M14 melanoma, 3.2 µM; in the assay with MDA-MB-231 breast, 2.01 µM; with MDA-MB-435, 4.78 µM. For the same molecule, the GI50 with NCI-H460 lung was 2.6 µM; in the assay with SF-268 CNS, 1.96 µM; with SN12C renal, 1.82 µM; with SNB-19 CNS, 2.87 µM. The TGI amounted to 3.95 µM in the assay on A498 renal; 5.34 µM in the assay with ACHN renal; 3.89 µM in the assay on HCC-2998 colon; 14.8 µM in the assay with M14 melanoma; 5.09 µM in the assay with MDA-MB-231 breast; 19.5 µM with MDA-MB-435. In addition, the TGI in the assay on NCI-H460 lung stood at 7.85 µM; in the assay with SF-268 CNS it was 4.41 µM; in the assay with SN12C renal, 5.51 µM; with SNB-19 CNS, 10.3 µM.

Regarding `COc1ccc(Oc2nc(Nc3ccc(N4CCOCC4)cc3)ncc2NC(=O)Nc2cc(OC)cc(OC)c2)cc1`, the GI50 in the assay with A498 renal is 4.75 µM; in the assay on ACHN renal, 4.23 µM; in the assay on HCC-2998 colon, 2.11 µM; with M14 melanoma it was 3.02 µM; in the assay with MDA-MB-231 breast it was 0.992 µM; with MDA-MB-435 it was 2.33 µM. Moreover, the GI50 in the assay with NCI-H460 lung was 1.31 µM; in the assay with SF-268 CNS it was 2.64 µM; in the assay on SN12C renal, 1.17 µM; in the assay on SNB-19 CNS it was 4.66 µM. The TGI in the assay with A498 renal turned out to be 15 µM; in the assay with ACHN renal, 20.4 µM; with HCC-2998 colon, 7.16 µM; in the assay on M14 melanoma it was 14.1 µM; in the assay with MDA-MB-231 breast, 3.33 µM; in the assay with MDA-MB-435, 17.1 µM. Moreover, the TGI in the assay with NCI-H460 lung was 5.72 µM; with SF-268 CNS it was over 33.3 µM; with SN12C renal, 4.5 µM; with SNB-19 CNS, 28.8 µM.

As to `NS(=O)(=O)c1cccc(-c2cc3ccncc3cc2OCc2ccccc2)c1`, the GI50 in the assay on A498 renal is 2.17 µM; with ACHN renal it was 8.14 µM; in the assay on HCC-2998 colon, 15.2 µM; in the assay on M14 melanoma, 14.5 µM; with MDA-MB-231 breast, 7.37 µM; in the assay on MDA-MB-435, 12.7 µM. Further, the GI50 in the assay with NCI-H460 lung was 11.7 µM; with SF-268 CNS it was 14.5 µM; with SN12C renal it was 14.5 µM; in the assay with SNB-19 CNS, 19.1 µM. In addition, the TGI is 13 µM with A498 renal; over 25 µM in the assay with ACHN renal; over 25 µM in the assay on HCC-2998 colon; over 25 µM in the assay on M14 melanoma; over 23.9 µM with MDA-MB-231 breast; over 25 µM with MDA-MB-435. Besides, the TGI in the assay with NCI-H460 lung, with SF-268 CNS, with SN12C renal and in the assay with SNB-19 CNS was over 25 µM each time.
